From paper PMC8885657, “HPV infection alters vaginal microbiome through down-regulating host mucosal innate peptides used by Lactobacilli as amino acid sources” (Nature Communications, 2022)

Assays:
[1] = system: defensin/elafin mRNA in immortalized human keratinocytes (HaCaT cells); assay: RT-qPCR of innate peptide expression in non-infected immortalized keratinocytes (TNFα/LPS, siRNA, inhibitors); type: cell-based; conditions: for Elafin expression / HBD2 expression / HBD3 expression / HBD4 expression: siGL3, TNF alpha +
[2] = system: innate peptide mRNA (SLPI, S100A7, Elafin, HBD1-4, HD-5, HD-6) in CTRL and E6E7 cells; assay: RT-qPCR of innate peptide expression in CTRL and E6E7 keratinocytes, Control / LPS / TNF alpha (Fig 2D); type: cell-based, human;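 also: mRNA level normalized to HPRT mRNA of the same sample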
[3] = system: HPV E7 oncoprotein with IKK complex or β-catenin destruction complex proteins; assay: Gaussia princeps luciferase complementation assay (GPCA); type: binding, human papillomavirus / human; conditions: for GPCA signal, interaction with CK1a1: partner CK1a1; for GPCA signal, interaction with CK1 alpha 1: partner CK1 alpha 1, Fig 4M; for GPCA signal, interaction with CK1e: partner CK1e; for GPCA signal, interaction with CK1g1: partner CK1g1; for GPCA signal, interaction with CK1g2: partner CK1g2; for GPCA signal, interaction with CK1g3: partner CK1g3; for GPCA signal, interaction with CK1d: partner CK1d; for GPCA signal, interaction with DVL1: partner DVL1; for GPCA signal, interaction with DVL2: partner DVL2; for GPCA signal, interaction with DVL3: partner DVL3; for GPCA signal, interaction with GSK3B: partner GSK3B; for GPCA signal, interaction with NEMO: partner NEMO, Fig 3K; for GPCA signal, interaction with PPP2CA: partner PPP2CA; for GPCA signal, interaction with PPP2CB: partner PPP2CB
Excerpt: The coding (or mutated/truncated) sequences of HPV E7 from several alpha and beta genotypes (alpha: HPV16, 18, 33, and 39; beta: HPV8, 38, and 49) were transferred into Gateway-compatible GPCA destination vector pSPICA-N2. The open reading frames (ORFs) encoding proteins involved in IKK or β-catenin destruction complex were obtained from the human ORFeome v7.1 and 8.1 (Dana-Farber Cancer Institute, Boston, MA, USA) and were transferred into pSPICA-N1 plasmid. GPCA expression vectors (pSPICA-N1 and N2) allow the expression of two complementary fragments of the G. princeps luciferase (Gluc1 or Gluc2) linked to the N-terminal ends of tested proteins. All constructions were controlled by Sanger sequencing (GIGA-Genomics platform, University of Liege). GPCA experiments were then performed as extensively described previously[90],[91]. Briefly, HEK-293T cells were simultaneously transfected with 100 ng of pSPICA-N1-IKK or β-catenin destruction complex proteins and 100 ng of pSPICA-N2-E7 using PEI Max (Polysciences, Warrington, PA, USA). After 24 h, cells were washed, lysed and luciferase enzymatic activity was measured for 10 seconds using a Centro LB960 microplate luminometer (Berthold Technologies, Bad Wildbad, Germany). The luciferase assay system was purchased from Promega. As previously described, results were expressed as a luminescence value normalized over the sum of controls [normalized luminescence ratio (NLR)].

Cc1ccc(S(=O)(=O)/C=C/C#N)cc1 [BAY 11-7082, reference compound]
TNFα/LPS-induced defensin/elafin mRNA levels [1]: significant decrease

TNFα
Elafin expression ([2]; CTRL cells, replicate 1): 5.073
HBD1 expression ([2]; CTRL cells, replicate 1): 0.2367
HBD2 expression ([2]; CTRL cells, replicate 1): 3.658
HBD3 expression ([2]; CTRL cells, replicate 1): 3.171
HBD4 expression ([2]; CTRL cells, replicate 1): 2.287
HD-5 expression ([2]; CTRL cells, replicate 1): 0.3567
HD-6 expression ([2]; CTRL cells, replicate 1): 1.388
S100A7 expression ([2]; CTRL cells, replicate 1): 0.722
SLPI expression ([2]; CTRL cells, replicate 1): 0.646
Elafin expression ([2]; CTRL cells, replicate 2): 4.065
HBD1 expression ([2]; CTRL cells, replicate 2): 1.168
HBD2 expression ([2]; CTRL cells, replicate 2): 4.597
HBD3 expression ([2]; CTRL cells, replicate 2): 4.307
HBD4 expression ([2]; CTRL cells, replicate 2): 2.172
HD-5 expression ([2]; CTRL cells, replicate 2): 2.274
HD-6 expression ([2]; CTRL cells, replicate 2): 2.604
S100A7 expression ([2]; CTRL cells, replicate 2): 0.3271
SLPI expression ([2]; CTRL cells, replicate 2): 2.0642
Elafin expression ([2]; CTRL cells, replicate 3): 7.706
HBD1 expression ([2]; CTRL cells, replicate 3): 0.2415
HBD2 expression ([2]; CTRL cells, replicate 3): 6.118
HBD3 expression ([2]; CTRL cells, replicate 3): 2.998
HBD4 expression ([2]; CTRL cells, replicate 3): 5.397
HD-5 expression ([2]; CTRL cells, replicate 3): 2.494
HD-6 expression ([2]; CTRL cells, replicate 3): 1.116
S100A7 expression ([2]; CTRL cells, replicate 3): 1.785
SLPI expression ([2]; CTRL cells, replicate 3): 1.2988
Elafin expression ([2]; CTRL cells, replicate 4): 14.6325
HBD1 expression ([2]; CTRL cells, replicate 4): 1.1843
HBD2 expression ([2]; CTRL cells, replicate 4): 11.5149
HBD3 expression ([2]; CTRL cells, replicate 4): 3.1783
HBD4 expression ([2]; CTRL cells, replicate 4): 3.11
HD-5 expression ([2]; CTRL cells, replicate 4): 8.229
HD-6 expression ([2]; CTRL cells, replicate 4): 1.904
S100A7 expression ([2]; CTRL cells, replicate 4): 0.4855
SLPI expression ([2]; CTRL cells, replicate 4): 0.7519
Elafin expression ([2]; E6E7 cells, replicate 1): 0.006506
HBD1 expression ([2]; E6E7 cells, replicate 1): 0.08614
HBD2 expression ([2]; E6E7 cells, replicate 1): 2.123
HBD3 expression ([2]; E6E7 cells, replicate 1): 0.6511
HBD4 expression ([2]; E6E7 cells, replicate 1): 0.3771
HD-5 expression ([2]; E6E7 cells, replicate 1): 0.1042
HD-6 expression ([2]; E6E7 cells, replicate 1): 1.213
S100A7 expression ([2]; E6E7 cells, replicate 1): 1.453e-5
SLPI expression ([2]; E6E7 cells, replicate 1): 0.0293
Elafin expression ([2]; E6E7 cells, replicate 2): 0.03758
HBD1 expression ([2]; E6E7 cells, replicate 2): 0.1065
HBD2 expression ([2]; E6E7 cells, replicate 2): 0.4899
HBD3 expression ([2]; E6E7 cells, replicate 2): 2.311
HBD4 expression ([2]; E6E7 cells, replicate 2): 0.789
HD-5 expression ([2]; E6E7 cells, replicate 2): 1.126
HD-6 expression ([2]; E6E7 cells, replicate 2): 0.08436
S100A7 expression ([2]; E6E7 cells, replicate 2): 1.453e-5
SLPI expression ([2]; E6E7 cells, replicate 2): 0.1199
Elafin expression ([2]; E6E7 cells, replicate 3): 0.01347
HBD1 expression ([2]; E6E7 cells, replicate 3): 0.06181
HBD2 expression ([2]; E6E7 cells, replicate 3): 2.314
HBD3 expression ([2]; E6E7 cells, replicate 3): 0.09282
HBD4 expression ([2]; E6E7 cells, replicate 3): 1.611
HD-5 expression ([2]; E6E7 cells, replicate 3): 0.8629
HD-6 expression ([2]; E6E7 cells, replicate 3): 0.3418
S100A7 expression ([2]; E6E7 cells, replicate 3): 8.731e-6
SLPI expression ([2]; E6E7 cells, replicate 3): 0.005195
Elafin expression ([2]; E6E7 cells, replicate 4): 0.01173
HBD1 expression ([2]; E6E7 cells, replicate 4): 0.009073
HBD2 expression ([2]; E6E7 cells, replicate 4): 0.5342
HBD3 expression ([2]; E6E7 cells, replicate 4): 0.8751
HBD4 expression ([2]; E6E7 cells, replicate 4): 0.9721
HD-5 expression ([2]; E6E7 cells, replicate 4): 1.847
HD-6 expression ([2]; E6E7 cells, replicate 4): 0.557
S100A7 expression ([2]; E6E7 cells, replicate 4): 8.0162e-6
SLPI expression ([2]; E6E7 cells, replicate 4): 0.029
HβD2-4 expression (RT-qPCR) ([1]; immortalized keratinocytes, TNFα 20 ng/ml, normalized to HPRT, n = 4): highly stimulated
Elafin expression ([1]; replicate 1): 6.99
HBD2 expression ([1]; replicate 1): 14.1
HBD3 expression ([1]; replicate 1): 4.31
HBD4 expression ([1]; replicate 1): 5.27
Elafin expression ([1]; replicate 2): 3.11
HBD2 expression ([1]; replicate 2): 7.45
HBD3 expression ([1]; replicate 2): 7.5
HBD4 expression ([1]; replicate 2): 1.23
Elafin expression ([1]; replicate 3): 6.23
HBD2 expression ([1]; replicate 3): 7.27
HBD3 expression ([1]; replicate 3): 4.03
HBD4 expression ([1]; replicate 3): 3.86

HPV16 E7
GPCA signal, interaction with Beta-TrCP ([3]; partner Beta-TRCP, Fig 4L, replicate 1): 8.518
GPCA signal, interaction with Beta-TrCP ([3]; partner Beta-TRCP, Fig 4L, replicate 2): 8.927
GPCA signal, interaction with Beta-TrCP ([3]; partner Beta-TRCP, Fig 4L, replicate 3): 6.394
GPCA signal, interaction with Beta-TrCP ([3]; partner Beta-TrCP, Fig 4N, replicate 1): 8.216
GPCA signal, interaction with Beta-TrCP ([3]; partner Beta-TrCP, Fig 4N, replicate 2): 18.6197
GPCA signal, interaction with Beta-TrCP ([3]; partner Beta-TrCP, Fig 4N, replicate 3): 12.6285
GPCA signal, interaction with CK1a1 ([3]; Fig 4L, replicate 1): 4.195
GPCA signal, interaction with CK1a1 ([3]; Fig 4L, replicate 2): 4.4237
GPCA signal, interaction with CK1a1 ([3]; Fig 4L, replicate 3): 4.5837
GPCA signal, interaction with CK1 alpha 1 ([3]; replicate 1): 4.747
GPCA signal, interaction with CK1 alpha 1 ([3]; replicate 2): 7.358
GPCA signal, interaction with CK1 alpha 1 ([3]; replicate 3): 7.5013
GPCA signal, interaction with CK1e ([3]; Fig 4L, replicate 1): 2.875
GPCA signal, interaction with CK1e ([3]; Fig 4L, replicate 2): 2.433
GPCA signal, interaction with CK1e ([3]; Fig 4L, replicate 3): 2.765
GPCA signal, interaction with CK1g1 ([3]; Fig 4L, replicate 1): 13.8547
GPCA signal, interaction with CK1g1 ([3]; Fig 4L, replicate 2): 9.7345
GPCA signal, interaction with CK1g1 ([3]; Fig 4L, replicate 3): 4.265
GPCA signal, interaction with CK1g2 ([3]; Fig 4L, replicate 1): 8.184
GPCA signal, interaction with CK1g2 ([3]; Fig 4L, replicate 2): 7.066
GPCA signal, interaction with CK1g2 ([3]; Fig 4L, replicate 3): 7.286
GPCA signal, interaction with CK1g3 ([3]; Fig 4L, replicate 1): 8.632
GPCA signal, interaction with CK1g3 ([3]; Fig 4L, replicate 2): 7.582
GPCA signal, interaction with CK1g3 ([3]; Fig 4L, replicate 3): 7.146
GPCA signal, interaction with CK1d ([3]; Fig 4L, replicate 1): 4.409
GPCA signal, interaction with CK1d ([3]; Fig 4L, replicate 2): 3.975
GPCA signal, interaction with CK1d ([3]; Fig 4L, replicate 3): 4.309
GPCA signal, interaction with DVL1 ([3]; Fig 4L, replicate 1): 3.768
GPCA signal, interaction with DVL1 ([3]; Fig 4L, replicate 2): 3.207
GPCA signal, interaction with DVL1 ([3]; Fig 4L, replicate 3): 4.087
GPCA signal, interaction with DVL2 ([3]; Fig 4L, replicate 1): 1.678
GPCA signal, interaction with DVL2 ([3]; Fig 4L, replicate 2): 1.485
GPCA signal, interaction with DVL2 ([3]; Fig 4L, replicate 3): 1.904
GPCA signal, interaction with DVL3 ([3]; Fig 4L, replicate 1): 1.994
GPCA signal, interaction with DVL3 ([3]; Fig 4L, replicate 2): 1.934
GPCA signal, interaction with DVL3 ([3]; Fig 4L, replicate 3): 1.325
GPCA signal, interaction with GSK3B ([3]; Fig 4L, replicate 1): 9.854
GPCA signal, interaction with GSK3B ([3]; Fig 4L, replicate 2): 8.937
GPCA signal, interaction with GSK3B ([3]; Fig 4L, replicate 3): 8.081
GPCA signal, interaction with NEMO ([3]; replicate 1): 28.7366
GPCA signal, interaction with NEMO ([3]; replicate 2): 37.4793
GPCA signal, interaction with NEMO ([3]; replicate 3): 29.9172
GPCA signal, interaction with PPP2CA ([3]; Fig 4L, replicate 1): 1.175
GPCA signal, interaction with PPP2CA ([3]; Fig 4L, replicate 2): 1.457
GPCA signal, interaction with PPP2CA ([3]; Fig 4L, replicate 3): 0.9985
GPCA signal, interaction with PPP2CB ([3]; Fig 4L, replicate 1): 2.065
GPCA signal, interaction with PPP2CB ([3]; Fig 4L, replicate 2): 1.7166
GPCA signal, interaction with PPP2CB ([3]; Fig 4L, replicate 3): 1.3201
